Experimental data from the NIST ThermoML archive (doi:10.1021/acs.jced.8b00005).
Several values for one entry are separate records, joined by “and”; a condition that tells them apart may be missing. Equal entries are not always repeated.

Conditions: Liquid, Ebulliometric method (Recirculating still)

CC(=O)OC(C)C [1-methylethyl ethanoate]
Conditions	vapor or sublimation pressure
304.07 K	10.57 kPa
306.28 K	11.58 kPa
308.95 K	13.35 kPa
312.53 K	15.79 kPa
316.52 K	19 kPa
317.77 K	20 kPa
320.42 K	22.45 kPa
323.45 K	25.6 kPa
325.91 K	28.24 kPa
328.97 K	31.94 kPa
332.14 K	36.19 kPa
334.75 K	39.98 kPa and 40 kPa
337.73 K	44.85 kPa
340.95 K	50.51 kPa
344.18 K	56.66 kPa
345.94 K	60.03 kPa and 60 kPa
348.17 K	65.32 kPa
350.35 K	70.47 kPa
352.47 K	75.52 kPa
354.29 K	79.97 kPa and 80 kPa
356.48 K	85.89 kPa
358.2 K	90.5 kPa
359.77 K	95.13 kPa
361.79 K	101.26 kPa and 101.3 kPa

CCO [ethanol]
Conditions	vapor or sublimation pressure
307.52 K	13.19 kPa
309.89 K	15.05 kPa
312.21 K	17.13 kPa
315.24 K	20 kPa
318.42 K	23.45 kPa
320.31 K	25.72 kPa
322.13 K	28.12 kPa
324.1 K	30.85 kPa
325.96 K	33.68 kPa
327.52 K	36.2 kPa
329.57 K	40 kPa
329.58 K	40 kPa
331.49 K	43.49 kPa
333.45 K	47.62 kPa
335.16 K	51.36 kPa
336.76 K	55.12 kPa
338.72 K	60.05 kPa
338.73 K	60 kPa
340.19 K	63.84 kPa
341.5 K	67.56 kPa
343.06 K	72.1 kPa
344.37 K	75.99 kPa
345.69 K	79.99 kPa and 80 kPa
347.1 K	84.65 kPa
348.51 K	89.37 kPa
349.83 K	94.48 kPa
351.55 K	101.31 kPa
351.65 K	101.3 kPa
